From US11957759B1, “Rapidly accelerated fibrosarcoma (RAF) degrading compounds and associated methods of use” (Arvinas Operations, Inc., priority 2022, dated 2024)

Experiments:
B-RAF V600E = biological target: T1, B-RAF V600E (Homo sapiens, UniProt P15056, V600E); experiment: Target protein degradation, assay C: T-Rex 293 cells, HA-BRAF_V600E, 384 well format; format: cell-based; conditions: T-Rex 293 HA-BRAF_V600E cells, 24 hours, Examples 83-269; for DC50: Assay C; for Dmax: T-REx-293, Assay C
T1 construct: expressed in transfected cells; host or cells: T-Rex 293 cells (Invitrogen #R71007)
Method in brief: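 After 24 h exposure to an 11-point 1:3 series (300 nM–5 pM, 0.5% DMSO), fixed T-Rex 293 cells carrying HA-BRAF V600E (induced with 1 ng/mL doxycycline) were stained anti-HA and imaged. DC50 and Dmax were derived from BRAF intensity relative to control, and cytotoxicity from nuclear counts.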

B-RAF G466V = biological target: T2, B-RAF G466V (Homo sapiens, UniProt P15056, G466V); experiment: Target protein degradation, assay D: T-Rex 293 cells, HA-BRAF_G466V, 384 well format; format: cell-based; conditions: T-Rex 293 HA-BRAF_G466V cells, 24 hours, Examples 83-269; for DC50: Assay D; for Dmax: T-REx-293, Assay D
T2 construct: expressed in transfected cells; host or cells: T-Rex 293 cells (Invitrogen #R71007)
Method in brief: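 Degradation measured by high-content imaging of anti-HA immunofluorescence in fixed T-Rex 293 cells carrying inducible HA-BRAF G466V (1 ng/mL doxycycline), after 24 h PROTAC exposure at 37 °C over 300 nM–5 pM (1:3, 11 points, 0.5% DMSO). Outputs DC50 and Dmax as % of control; nuclei counts against DMSO wells gauge toxicity.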

T1 sequence (P15056 whole entry V600E): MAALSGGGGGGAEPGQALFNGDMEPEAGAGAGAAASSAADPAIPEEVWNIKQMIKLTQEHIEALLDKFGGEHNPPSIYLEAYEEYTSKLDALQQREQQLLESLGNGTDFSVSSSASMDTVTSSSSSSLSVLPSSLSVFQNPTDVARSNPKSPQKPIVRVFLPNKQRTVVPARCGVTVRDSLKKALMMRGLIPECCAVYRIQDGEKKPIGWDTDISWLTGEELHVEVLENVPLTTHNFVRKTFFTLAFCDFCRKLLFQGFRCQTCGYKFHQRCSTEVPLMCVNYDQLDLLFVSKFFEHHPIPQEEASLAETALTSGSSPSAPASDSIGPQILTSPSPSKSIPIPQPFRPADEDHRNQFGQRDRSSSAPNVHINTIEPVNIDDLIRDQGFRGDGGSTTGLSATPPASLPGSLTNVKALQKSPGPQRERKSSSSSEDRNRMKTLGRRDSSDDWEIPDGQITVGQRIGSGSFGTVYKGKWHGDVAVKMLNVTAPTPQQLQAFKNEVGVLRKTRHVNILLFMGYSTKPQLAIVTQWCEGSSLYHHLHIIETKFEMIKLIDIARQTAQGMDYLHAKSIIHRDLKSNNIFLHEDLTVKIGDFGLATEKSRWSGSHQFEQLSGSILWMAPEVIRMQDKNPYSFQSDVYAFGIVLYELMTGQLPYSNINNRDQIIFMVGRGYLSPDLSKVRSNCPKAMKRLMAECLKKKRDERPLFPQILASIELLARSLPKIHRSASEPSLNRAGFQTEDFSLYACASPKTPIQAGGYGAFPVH
T2 sequence (P15056 whole entry G466V): as the sequence (P15056 whole entry V600E) above, with G466V, E600V counted along it

| DC50 (B-RAF V600E) | Dmax (B-RAF V600E) | DC50 (B-RAF G466V) | Dmax (B-RAF G466V) | SMILES |
| --- | --- | --- | --- | --- |
| 50 to 500 nM | 35 to 70% | 1 to 10 nM | 35 to 70% | Cn1c(=O)n(C2CCC(=O)NC2=O)c2cccc(N3CCC(CN4CCN(c5ccc(-n6cnc7ccc(Oc8c(F)ccc(NS(=O)(=O)N9CC[C@@H](F)C9)c8C#N)cc7c6=O)cc5)CC4)CC3)c21 (stereo partly drawn) [Example 98, (3R)-N-{2-cyano-3-[(3-{4-[4-({1-[1-(2,6-dioxopiperidin-3-yl)-3-methyl-2-oxo-2,3-dihydro-1H-1,3-benzodiazol-4-yl]piperidin-4-yl}methyl)piperazin-1-yl]phenyl}-4-oxo-3,4-dihydroquinazolin-6-yl)oxy]-4-fluorophenyl}-3-fluoropyrrolidine-1-sulfonamide] |
| 50 to 500 nM | ≤ 35% | > 30 nM | – | N#Cc1c(NS(=O)(=O)N2CC[C@@H](F)C2)ccc(F)c1Oc1ccc2ncn(-c3ccc(N4CCN(CC5CCN(c6ccc(F)c(C(=O)NC7CCC(=O)NC7=O)c6)CC5)CC4)nc3)c(=O)c2c1 (stereo partly drawn) [Example 140, 5-(4-{[4-(5-{6-[2-cyano-6-fluoro-3-({[(3R)-3-fluoropyrrolidin-1-yl]sulfonyl}amino)phenoxy]-4-oxo-3,4-dihydroquinazolin-3-yl}pyridin-2-yl)piperazin-1-yl]methyl}piperidin-1-yl)-N-(2,6-dioxopiperidin-3-yl)-2-fluorobenzamide] |
| 50 to 500 nM | 35 to 70% | 1 to 10 nM | ≤ 35% | N#Cc1c(NS(=O)(=O)N2CC[C@@H](F)C2)ccc(F)c1Oc1ccc2ncn(-c3ccc(N4CCN(CCN5CCN(c6ccc(C7CCC(=O)NC7=O)cc6F)CC5)CC4)cc3)c(=O)c2c1 (stereo partly drawn) [Example 244, (3R)-N-{2-cyano-3-[(3-(4-[4-(2-{4-[4-(2,6-dioxopiperidin-3-yl)-2-fluorophenyl]piperazin-1-yl}ethyl)piperazin-1-yl]phenyl}-4-oxo-3,4-dihydroquinazolin-6-yl)oxy]-4-fluorophenyl}-3-fluoropyrrolidine-1-sulfonamide] |
| 50 to 500 nM | 35 to 70% | 1 to 10 nM | ≥ 70% | N#Cc1c(NS(=O)(=O)N2CC[C@@H](F)C2)ccc(F)c1Oc1ccc2ncn(-c3cccc(C4CCN(CC5CN(c6ccc7c(c6)CN([C@H]6CCC(=O)NC6=O)C7=O)C5)CC4)c3)c(=O)c2c1 [Example 255, (3R)-N-(2-cyano-3-{[3-(3-{1-[(1-{2-[(3S)-2,6-dioxopiperidin-3-yl]-1-oxo-2,3-dihydro-1H-isoindol-5-yl}azetidin-3-yl)methyl]piperidin-4-yl}phenyl)-4-oxo-3,4-dihydroquinazolin-6-yl]oxy}-4-fluorophenyl)-3-fluoropyrrolidine-1-sulfonamide] |
| 50 to 500 nM | 35 to 70% | 1 to 10 nM | 35 to 70% | N#Cc1c(NS(=O)(=O)N2CC[C@@H](F)C2)ccc(F)c1Oc1ccc2ncn(-c3ccc(N4CCC(CN5CC(c6ccc7c(c6)CN(C6CCC(=O)NC6=O)C7=O)C5)CC4)cc3)c(=O)c2c1 (stereo partly drawn) [Example 101, (3R)-N-{2-cyano-3-[(3-{4-[4-({3-[2-(2,6-dioxopiperidin-3-yl)-1-oxo-2,3-dihydro-1H-isoindol-5-yl]azetidin-1-yl}methyl)piperidin-1-yl]phenyl}-4-oxo-3,4-dihydroquinazolin-6-yl)oxy]-4-fluorophenyl}-3-fluoropyrrolidine-1-sulfonamide] |
| 50 to 500 nM | 35 to 70% | 1 to 10 nM | 35 to 70% | N#Cc1c(NS(=O)(=O)N2CC[C@@H](F)C2)ccc(F)c1Oc1ccc2ncn(-c3ccc(N4CC5(CC(CN6CCN(c7ccc8c(c7)CN([C@H]7CCC(=O)NC7=O)C8=O)CC6)C5)C4)cc3)c(=O)c2c1 [Example 191, (3R)-N-(2-cyano-3-{[3-(4-{6-[(4-{2-[(3S)-2,6-dioxopiperidin-3-yl]-1-oxo-2,3-dihydro-1H-isoindol-5-yl}piperazin-1-yl)methyl]-2-azaspiro[3.3]heptan-2-yl}phenyl)-4-oxo-3,4-dihydroquinazolin-6-yl]oxy}-4-fluorophenyl)-3-fluoropyrrolidine-1-sulfonamide] |
| 50 to 500 nM | ≥ 70% | 1 to 10 nM | 35 to 70% | Cn1c(=O)n(C2CCC(=O)NC2=O)c2cccc(N3CCN(CCN4CCN(c5ccc(-n6cnc7ccc(Oc8c(F)ccc(NS(=O)(=O)N9CC[C@@H](F)C9)c8C#N)cc7c6=O)cc5)CC4)CC3)c21 (stereo partly drawn) [Example 245, (3R)-N-{2-cyano-3-[(3-{4-[4-(2-{4-[1-(2,6-dioxopiperidin-3-yl)-3-methyl-2-oxo-2,3-dihydro-1H-1,3-benzodiazol-4-yl]piperazin-1-yl}ethyl)piperazin-1-yl]phenyl}-4-oxo-3,4-dihydroquinazolin-6-yl)oxy]-4-fluorophenyl}-3-fluoropyrrolidine-1-sulfonamide] |
| 5 to 50 nM | ≤ 35% | > 30 nM | – | COc1cc(N2CCN(c3ccc(-n4cnc5ccc(Oc6c(F)ccc(NS(=O)(=O)N7CC[C@@H](F)C7)c6C#N)cc5c4=O)cn3)CC2)cc2c1C(=O)N(C1CCC(=O)NC1=O)C2=O (stereo partly drawn) [Example 139, (3R)-N-(2-cyano-3-{[3-(6-{4-[2-(2,6-dioxopiperidin-3-yl)-7-methoxy-1,3-dioxo-2,3-dihydro-1H-isoindol-5-yl]piperazin-1-yl}pyridin-3-yl)-4-oxo-3,4-dihydroquinazolin-6-yl]oxy}-4-fluorophenyl)-3-fluoropyrrolidine-1-sulfonamide] |

More lines, now with the values behind:

| SMILES | DC50 (B-RAF V600E) | Dmax (B-RAF V600E) | DC50 (B-RAF G466V) | Dmax (B-RAF G466V) |
| --- | --- | --- | --- | --- |
| CCc1c(NS(=O)(=O)N2CC[C@@H](F)C2)ccc(F)c1Oc1ccc2ncn(-c3ccc(N4CCN(CC5CCN(c6ccc7c(c6)CN(C6CCC(=O)NC6=O)C7=O)CC5)CC4)cc3)c(=O)c2c1 (stereo partly drawn) [Example 227, (3R)-N-{3-[(3-{4-[4-({1-[2-(2,6-dioxopiperidin-3-yl)-1-oxo-2,3-dihydro-1H-isoindol-5-yl]piperidin-4-yl}methyl)piperazin-1-yl]phenyl}-4-oxo-3,4-dihydroquinazolin-6-yl)oxy]-2-ethyl-4-fluorophenyl}-3-fluoropyrrolidine-1-sulfonamide] | 50 to 500 nM | ≤ 35% | 10 to 30 nM | ≤ 35% |
| N#Cc1c(NS(=O)(=O)N2CC[C@@H](F)C2)ccc(F)c1Oc1ccc2ncn(-c3ccc(N4CCC(CN5CCN(CC6CCN(c7ccc8c(c7)CN([C@H]7CCC(=O)NC7=O)C8=O)CC6)CC5)CC4)cc3)c(=O)c2c1 [Example 185, (3R)-N-{2-cyano-3-[(3-{4-[4-({4-[(1-{2-[(3S)-2,6-dioxopiperidin-3-yl]-1-oxo-2,3-dihydro-1H-isoindol-5-yl}piperidin-4-yl)methyl]piperazin-1-yl}methyl)piperidin-1-yl]phenyl}-4-oxo-3,4-dihydroquinazolin-6-yl)oxy]-4-fluorophenyl}-3-fluoropyrrolidine-1-sulfonamide] | 50 to 500 nM | 35 to 70% | 10 to 30 nM | ≤ 35% |
| N#Cc1c(NS(=O)(=O)N2CC[C@@H](F)C2)ccc(F)c1Oc1ccc2ncn(-c3cnc(C4(N5CCN(CC6CCN(c7ccc(NC8CCC(=O)NC8=O)cc7F)CC6)CC5)CC4)nc3)c(=O)c2c1 (stereo partly drawn) [Example 102, (3R)-N-[2-cyano-3-({3-[2-(1-{4-[(1-{4-[(2,6-dioxopiperidin-3-yl)amino]-2-fluorophenyl}piperidin-4-yl)methyl]piperazin-1-yl}cyclopropyl)pyrimidin-5-yl]-4-oxo-3,4-dihydroquinazolin-6-yl}oxy)-4-fluorophenyl]-3-fluoropyrrolidine-1-sulfonamide] | 50 to 500 nM | 35 to 70% | > 30 nM | – |
| N#Cc1c(NS(=O)(=O)N2CC[C@@H](F)C2)ccc(F)c1Oc1ccc2ncn(-c3ccc(N4CCC(CN5CCC6(CC5)CCN(c5ccc7c(c5)C(=O)N(C5CCC(=O)NC5=O)C7=O)CC6)CC4)nc3)c(=O)c2c1 (stereo partly drawn) [Example 146, (3R)-N-{2-cyano-3-[(3-{6-[4-({9-[2-(2,6-dioxopiperidin-3-yl)-1,3-dioxo-2,3-dihydro-1H-isoindol-5-yl]-3,9-diazaspiro[5.5]undecan-3-yl}methyl)piperidin-1-yl]pyridin-3-yl}-4-oxo-3,4-dihydroquinazolin-6-yl)oxy]-4-fluorophenyl}-3-fluoropyrrolidine-1-sulfonamide] | 5 to 50 nM | 35 to 70% | 1 to 10 nM | 35 to 70% |
| N#Cc1c(NS(=O)(=O)N2CC[C@@H](F)C2)ccc(F)c1Oc1ccc2ncn(-c3ccc(N4CCC(CN5CC(c6ccc([C@@H]7CCC(=O)NC7=O)cc6F)C5)CC4)cc3)c(=O)c2c1 [Example 184, (3R)-N-(2-cyano-3-{[3-(4-{4-[(3-{4-[(3S)-2,6-dioxopiperidin-3-yl]-2-fluorophenyl}azetidin-1-yl)methyl]piperidin-1-yl}phenyl)-4-oxo-3,4-dihydroquinazolin-6-yl]oxy}-4-fluorophenyl)-3-fluoropyrrolidine-1-sulfonamide] | 50 to 500 nM | ≤ 35% | > 30 nM | – |
| N#Cc1c(NS(=O)(=O)N2CC[C@@H](F)C2)ccc(F)c1Oc1ccc2ncn(-c3ccc(N4CCC(CN5CC6(CCN(c7ccc8c(c7)CN([C@H]7CCC(=O)NC7=O)C8=O)CC6)C5)CC4)cc3)c(=O)c2c1 [Example 238, (3R)-N-(2-cyano-3-{[3-(4-{4-[(7-{2-[(3S)-2,6-dioxopiperidin-3-yl]-1-oxo-2,3-dihydro-1H-isoindol-5-yl}-2,7-diazaspiro[3.5]nonan-2-yl)methyl]piperidin-1-yl}phenyl)-4-oxo-3,4-dihydroquinazolin-6-yl]oxy}-4-fluorophenyl)-3-fluoropyrrolidine-1-sulfonamide] | 50 to 500 nM | ≥ 70% | 1 to 10 nM | ≥ 70% |
